The supplement of paper PMC10307832

Legend:
Experiment in all cases: relative viability (nuclei count vs DMSO), 5 days (fraction); higher = more cells survive
[1] = compound: COc1cc2ncn(-c3cc(OCc4ccccc4C(F)(F)F)c(C(N)=O)s3)c2cc1OC + CC(=O)Nc1cccc(-n2c(=O)n(C3CC3)c(=O)c3c(Nc4ccc(I)cc4F)n(C)c(=O)c(C)c32)c1 [Trametinib] (partner 0.02 µM)
Procedure, shortened: (§1)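 The day after seeding in 1536-well plates, lung cancer cell lines were treated by pin tool with a single drug, or with a fixed anchor-drug dose together with five library-drug doses (not always all listed) in √10 steps. After 5 days, a combined fix-and-stain solution (final 0.05% Triton X-100, 1% formaldehyde, 1 ug/ml Hoechst) was added. Nuclei counted on 4× images gave relative viability as treated counts over vehicle counts, reported as the median of duplicate plates.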

[2] = compound: COc1cc2ncn(-c3cc(OCc4ccccc4C(F)(F)F)c(C(N)=O)s3)c2cc1OC + N=C(N)NC(=N)NCCc1ccccc1 [Phenformin] (partner 250 µM)
Procedure, shortened: as §1

[3] = compound: COc1cc2ncn(-c3cc(OCc4ccccc4C(F)(F)F)c(C(N)=O)s3)c2cc1OC + COc1cccc2cc(-c3nc([C@H]4CC[C@H](C(=O)O)CC4)n4ncnc(N)c34)[nH]c12 [OSI-027] (partner 0.5 µM)
Procedure, shortened: as §1

[4] = compound: COc1cc2ncn(-c3cc(OCc4ccccc4C(F)(F)F)c(C(N)=O)s3)c2cc1OC
Procedure, shortened: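 Five library-drug doses spaced by √10 were pinned onto vehicle-anchored 1536-well plates of lung cancer cell lines that had been kept overnight at 37 °C. Cells went 5 days without medium change, then were fixed, permeabilised and Hoechst-stained together, imaged at 4× and counted by MetaXpress. Viability is the ratio of treated-well to vehicle-well nuclei, taken as a median over plates. Plates required control CV below 25% and at least one doubling.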

Row | Cell Line | relative viability ([1]; first compound 0.05 µM) | relative viability ([1]; first compound 0.1581 µM) | relative viability ([1]; first compound 0.5 µM) | relative viability ([1]; first compound 1.581 µM) | relative viability ([1]; first compound 5 µM) | relative viability ([2]; first compound 0.05 µM) | relative viability ([2]; first compound 0.1581 µM) | relative viability ([2]; first compound 0.5 µM) | relative viability ([2]; first compound 1.581 µM) | relative viability ([2]; first compound 5 µM) | relative viability ([3]; first compound 0.05 µM) | relative viability ([3]; first compound 0.1581 µM) | relative viability ([3]; first compound 0.5 µM) | relative viability ([3]; first compound 1.581 µM) | relative viability ([3]; first compound 5 µM) | relative viability ([4]; 0.05 µM) | relative viability ([4]; 0.1581 µM) | relative viability ([4]; 0.5 µM) | relative viability ([4]; 1.581 µM) | relative viability ([4]; 5 µM)
1 | NCI-H441 | 0.537 | 0.423 | 0.156 | 0.133 | 0.113 | 0.837 | 0.636 | 0.196 | 0.196 | 0.227 | 0.553 | 0.495 | 0.2 | 0.245 | 0.237 | 0.846 | 0.683 | 0.209 | 0.217 | 0.196
2 | NCI-H460 | 0.247 | 0.101 | 0.102 | 0.0172 | 0.0148 | 0.476 | 0.49 | 0.0454 | 0.0127 | 0.0125 | 0.625 | 0.616 | 0.227 | 0.0107 | 0.0118 | 0.986 | 0.946 | 0.603 | 0.0622 | 0.0847
3 | NCI-H520 | 0.644 | 0.561 | 0.236 | 0.171 | 0.166 | 0.598 | 0.642 | 0.269 | 0.266 | 0.211 | 0.28 | 0.29 | 0.27 | 0.163 | 0.175 | 0.946 | 0.975 | 0.649 | 0.212 | 0.198
4 | NCI-H522 | 0.654 | 0.748 | 0.657 | 0.673 | 0.335 | 0.741 | 0.581 | 0.612 | 0.484 | 0.404 | 0.692 | 0.757 | 0.621 | 0.444 | 0.415 | 1.02 | 0.91 | 0.935 | 0.561 | 0.308
5 | NCI-H596 | 0.469 | 0.695 | 0.802 | 0.439 | 0.297 | 0.81 | 0.811 | 0.466 | 0.397 | 0.275 | 0.758 | 0.759 | 0.429 | 0.222 | 0.253 | 0.946 | 1.04 | 0.756 | 0.406 | 0.284
6 | NCI-H647 | 0.544 | 0.388 | 0.279 | 0.0866 | 0.079 | 0.537 | 0.509 | 0.101 | 0.0685 | 0.069 | 0.687 | 0.561 | 0.536 | 0.0932 | 0.0815 | 0.956 | 0.881 | 0.432 | 0.0899 | 0.0672
7 | NCI-H650 | 0.954 | 0.722 | 0.6 | 0.204 | 0.489 | 0.511 | 0.458 | 0.374 | 0.171 | 0.205 | 0.503 | 0.63 | 0.383 | 0.213 | 0.189 | 0.913 | 0.961 | 0.69 | 0.33 | 0.349
8 | NCI-H661 | 0.692 | 0.491 | 0.299 | 0.244 | 0.219 | 0.28 | 0.249 | 0.2 | 0.21 | 0.18 | 0.755 | 0.581 | 0.53 | 0.191 | 0.174 | 0.979 | 0.998 | 0.685 | 0.348 | 0.333
9 | NCI-H727 | 0.431 | 0.377 | 0.338 | 0.385 | 0.396 | 0.652 | 0.432 | 0.372 | 0.363 | 0.399 | 0.684 | 0.692 | 0.457 | 0.516 | 0.407 | 0.991 | 0.752 | 0.687 | 0.395 | 0.417
10 | NCI-H838 | 0.518 | 0.523 | 0.412 | 0.192 | 0.0837 | 0.72 | 0.61 | 0.324 | 0.139 | 0.0964 | 0.385 | 0.424 | 0.292 | 0.231 | 0.123 | 0.971 | 1.03 | 0.764 | 0.176 | 0.153
11 | NCI-H1355 | 0.274 | 0.403 | 0.326 | 0.176 | 0.127 | 0.453 | 0.434 | 0.358 | 0.17 | 0.161 | 0.433 | 0.367 | 0.223 | 0.177 | 0.126 | 0.974 | 0.957 | 0.534 | 0.197 | 0.185
12 | NCI-H1395 | 1.11 | 0.977 | 0.828 | 0.39 | 0.287 | 0.459 | 0.438 | 0.386 | 0.335 | 0.295 | 0.63 | 0.675 | 0.547 | 0.354 | 0.323 | 0.964 | 0.925 | 0.68 | 0.4 | 0.314
13 | NCI-H1437 | 0.577 | 0.376 | 0.19 | 0.205 | 0.234 | 0.352 | 0.223 | 0.117 | 0.123 | 0.12 | 0.958 | 0.79 | 0.298 | 0.142 | 0.118 | 1.02 | 0.898 | 0.507 | 0.21 | 0.18
14 | NCI-H1650 | 0.631 | 0.515 | 0.35 | 0.143 | 0.139 | 0.389 | 0.341 | 0.175 | 0.129 | 0.179 | 0.503 | 0.654 | 0.208 | 0.134 | 0.149 | 0.899 | 0.951 | 0.396 | 0.19 | 0.147
15 | NCI-H1651 | 0.86 | 0.788 | 0.755 | 0.593 | 0.702 | 0.318 | 0.304 | 0.132 | 0.102 | 0.117 | 0.762 | 0.737 | 0.594 | 0.145 | 0.0994 | 1.05 | 0.992 | 0.77 | 0.398 | 0.221
